Laboratory results reported in ChEMBL document CHEMBL1201862, “PubChem BioAssay data set” (2004).
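In this assay, cells in 96-well plates receive the compound at five concentrations for 48 hours. Endpoints are linearly interpolated between the surrounding concentrations. GI50 = concentration required for 50% inhibition of growth.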 Calls of active or inactive are those of the source. No stated cut-off is given here; in the data, active = GI50 up to about 1.1 µM and inactive = higher.

What was measured:
Experiment in all cases: NCI anticancer screen, dose series, 48 h
[1] = tested on: NCI/ADR-RES
[2] = tested on: M14
[3] = tested on: SNB-19
[4] = tested on: Malme-3M
[5] = tested on: OVCAR-3
[6] = tested on: PC-3
[7] = tested on: SK-MEL-28
[8] = tested on: SR
[9] = tested on: K562
[10] = tested on: MOLT-4
[11] = tested on: DU-145
[12] = tested on: SF-295
[13] = tested on: HCT-116
[14] = tested on: SNB-75
[15] = tested on: UACC-62
[16] = tested on: NCI-H23
[17] = tested on: LOX IMVI
[18] = tested on: ACHN
[19] = tested on: Hs-578T
[20] = tested on: UO-31

Compound	GI50 [1]	GI50 [2]	GI50 [3]	GI50 [4]	GI50 [5]	GI50 [6]	GI50 [7]	GI50 [8]	GI50 [9]	GI50 [10]	GI50 [11]	GI50 [12]	GI50 [13]	GI50 [14]	GI50 [15]	GI50 [16]	GI50 [17]	GI50 [18]	GI50 [19]	GI50 [20]
COc1cc(C(=O)Oc2c(C#N)sc3c2c(=O)n(-c2ccccc2)c(=S)n3-c2ccccc2)cc(OC)c1OC	16.6 µM (inactive)	12.8 µM (inactive)	11.6 µM (inactive)	9.14 µM (inactive)	22.7 µM (inactive)	17.1 µM (inactive)	14.2 µM (inactive)	> 100 µM (inactive)	23.5 µM (inactive)	16.6 µM (inactive)	19.8 µM (inactive)	4.14 µM (inactive)	16.3 µM (inactive)	14.4 µM (inactive)	24.1 µM (inactive)	18.1 µM (inactive)	19.9 µM (inactive)	8.87 µM (inactive)	8.26 µM (inactive)	
O=C(O)CCN1CCN(CCC(=O)O)CCN(CCC(=O)O)CC1	> 100 µM (inactive)	> 100 µM (inactive)	> 100 µM (inactive)	> 100 µM (inactive)	> 100 µM (inactive)	> 100 µM (inactive)	> 100 µM (inactive)	44.6 µM (inactive)	36.3 µM (inactive)	> 100 µM (inactive)	> 100 µM (inactive)	> 100 µM (inactive)	32.6 µM (inactive)	45.8 µM (inactive)	> 100 µM (inactive)		82.8 µM (inactive)	> 100 µM (inactive)	> 100 µM (inactive)	> 100 µM (inactive)
COC(=O)c1cc2c(c3c1CC(Cc1ccccc1)C3=O)CCC2 (centres undefined)	> 100 µM (inactive)	93.3 µM (inactive)	> 100 µM (inactive)	54.1 µM (inactive)	> 100 µM (inactive)	> 100 µM (inactive)	> 100 µM (inactive)	> 100 µM (inactive)	38.1 µM (inactive)	53.6 µM (inactive)	61.4 µM (inactive)	> 100 µM (inactive)	> 100 µM (inactive)	40.9 µM (inactive)	32.7 µM (inactive)	64.4 µM (inactive)	45.9 µM (inactive)	84.3 µM (inactive)	45.9 µM (inactive)	
Cc1cccc2c1CC1(C2)Cc2c(C)cccc2C1=O (centres undefined)	38.1 µM (inactive)	26.6 µM (inactive)	49.3 µM (inactive)	22.7 µM (inactive)	23.9 µM (inactive)	31.7 µM (inactive)	21.6 µM (inactive)	11.2 µM (inactive)	26.5 µM (inactive)	9.91 µM (inactive)	18.8 µM (inactive)	27.9 µM (inactive)	16.5 µM (inactive)	18.6 µM (inactive)		31.4 µM (inactive)	17.5 µM (inactive)	24.9 µM (inactive)	37.6 µM (inactive)	23.1 µM (inactive)
O=c1c2sc(=S)n(-c3ccc(F)cc3)c2ncn1/N=C/c1ccc(F)cc1F	33 µM (inactive)	23.2 µM (inactive)	26.6 µM (inactive)	18.7 µM (inactive)	30.1 µM (inactive)	31.6 µM (inactive)	29.8 µM (inactive)	40.1 µM (inactive)	> 100 µM (inactive)		19 µM (inactive)	21.1 µM (inactive)	31 µM (inactive)	16 µM (inactive)	27.7 µM (inactive)	33.4 µM (inactive)	43.6 µM (inactive)	27.5 µM (inactive)	29.1 µM (inactive)	24.9 µM (inactive)
N#Cc1c(N)nc2c(/N=N\c3ccccc3)c(N)nn2c1Nc1ccccc1	20.4 µM (inactive)	12.1 µM (inactive)	18.5 µM (inactive)	21.6 µM (inactive)	13.9 µM (inactive)	5.69 µM (inactive)	5.51 µM (inactive)	2.39 µM (inactive)	3.4 µM (inactive)	3.24 µM (inactive)	18.2 µM (inactive)	16.8 µM (inactive)	9.38 µM (inactive)	34.3 µM (inactive)		4.55 µM (inactive)	3.4 µM (inactive)	20.4 µM (inactive)	1.06 µM (active)	> 10 µM (inactive)
